Test results: article PMC3419814 (Bioorganic & medicinal chemistry, 2012)

Test: logP from HPLC retention times
Type: physicochemical

| chromatographic logP | Compound |
| --- | --- |
| 4.8 to 5.5 | COc1ccc(Cl)cc1Nc1nc(-c2sc(NC(=O)C(C)(C)C)nc2C)c(-n2cc(CO)nn2)s1 [compound 13, N-(2-(5-Chloro-2-methoxyphenylamino)-5-(4-(hydroxyl-methyl)-1H-1,2,3-triazol-1-yl)-4′-methyl-4,5′-bithiazol-2′-yl)pivalamide] |
| 4.8 to 5.5 | COC(=O)c1cn(-c2sc(Nc3cc(Cl)ccc3OC)nc2-c2sc(NC(=O)C(C)(C)C)nc2C)nn1 [compound 14, Methyl 1-(2-(5-chloro-2-methoxyphenylamino)-4′-methyl-2′-pivalamido-4,5′-bithiazol-5-yl)-1H-1,2,3-triazole-4-carboxylate] |
| 4.8 to 5.5 | COc1ccc(Cl)cc1Nc1nc(-c2sc(NC(=O)C(C)(C)C)nc2C)c(-n2cc(C(=O)O)nn2)s1 [compound 15, 1-(2-(5-Chloro-2-methoxyphenylamino)-4′-methyl-2′-pivalamido-4,5′-bithiazol-5-yl)-1H-1,2,3-triazole-4-carboxylic acid] |
